According to PubChem BioAssay AID2749 (The Scripps Research Institute Molecular Screening Center, 2010):
Activity calls are given as the source filed them. How the calls were made is not given here.

test system: IEC-6 rat intestinal epithelial cells, cytotoxicity, luminescence; experiment: rat intestinal epithelial cell viability loss – luminescence, dose response, cytotoxicity control for KLF5 inhibitor project, late-stage follow-up (AID 2749)

| Compound | IC50 |
| --- | --- |
| CC(C)(C)C(=O)Nc1cc2nn(-c3ccccc3)nc2cc1Cl | > 39.8 µM (inactive) |
| CC(C)(C)c1ccc(-c2noc(CCC(=O)Nc3cccnc3)n2)cc1 | > 39.8 µM (inactive) |
| CN1CCN(c2ccc(-c3ccc4ccccc4n3)cc2)CC1 | 16.2 µM (inactive) |
| O=C(NCCc1ccccc1F)c1ccc2c(c1)OCCO2 | > 39.8 µM (inactive) |
| Cc1cc(C(=O)CN2C(=O)c3ccccc3S2(=O)=O)c(C)n1CC1CCCO1 (centres undefined) | > 39.8 µM (inactive) |
| c1ccc(-c2ccc(-c3nc(-c4ccccn4)no3)cc2)cc1 | 14.2 µM (inactive) |
| Cc1ccc2nc(NC(=O)CCCc3nc4ccccc4s3)sc2c1 | > 39.8 µM (inactive) |
| CC(C)(C)c1ccc(C(=O)O/N=C(\N)c2ccccn2)cc1 | 25.5 µM (inactive) |
| CCCc1ccc(-c2ccc(/C=C/C(=O)O)cc2)nc1 | > 39.8 µM (inactive) |
| CCOC(=O)c1sc(NC(=O)c2cc3ccccc3o2)nc1C | > 39.8 µM (inactive) |
| CCOC(=O)c1sc(NC(=O)c2ccc3ncsc3c2)nc1C | > 39.8 µM (inactive) |
| O=C(NCCc1ccccc1)c1ccc2c(c1)OCCCO2 | > 39.8 µM (inactive) |
| CN(C(=O)COC(=O)/C=C/c1cccc([N+](=O)[O-])c1)C1CCS(=O)(=O)C1 (centres undefined) | 34.8 µM (inactive) |
| COc1ccc(OCc2cccc(C(=O)Nn3cc([N+](=O)[O-])cn3)c2)cc1 | > 39.8 µM (inactive) |
| COc1ccc(C(=O)Nc2ccccc2C(=O)NN=Cc2ccc(O)c(OC)c2)cc1 | > 39.8 µM (inactive) |
| COc1cccc(C=NNc2ccc(C(=O)O)cc2)c1O | > 39.8 µM (inactive) |
| CCOC(=O)c1sc(NC(=O)c2cc3c(s2)CCC(C)C3)nc1C (centres undefined) | > 39.8 µM (inactive) |
| COC(=O)c1ccc2nc(Nc3nc4ccc(F)cc4s3)sc2c1 | > 39.8 µM (inactive) |
| CCCc1ccc(C(=O)O/N=C(\N)c2ccccn2)cc1 | > 39.8 µM (inactive) |
